# Assay results published in patent US7511026B2, “Therapeutic agent for nerve damage” (Seikagaku Corporation, priority 2003, dated 2009).
# Tests used:
# Type in all cases: in vivo, Wister rats
# [1] = tested on: spinal cord injury, slightly injured model; experiment: Spinal cord evoked potential (SCEP), slightly injured model; conditions: HA4 60 μg/animal/day, 7 days after injury
# Description: (§1) Wister rats (SPF, male) were used as animals, and each body was shaved from the neck to the hip using an electric hair clipper under pentobarbital (50 mg/kg weight) anesthesia and cleaned with 70% ethanol and Isodine (manufactured by Meiji Seika Kaisha, Ltd.). The dorsal skin was incised to expose thoracic vertebra from T5 to T10, and hemilaminectomy of the sixth thoracic vertebra (T6 thoracic vertebra) was performed to make a small incision in the dura mater, followed by regional anesthesia with xylocaine (manufactured by Astra Zeneca). […] A respirator was used only when spinal cord evoked potentials were measured. […]
# (§2) 7 days after the spinal cord injury, the spinal cord evoked potentials were determined. […] Then, the spinal cord evoked potential (SCEP) was measured, and the “mean±SD” was calculated. The resultant potentials were evaluated using the amplitude of the first potential as an indicator. […]
# [2] = tested on: spinal cord injury, slightly injured model; experiment: Histopathologic evaluation of injured spinal cord (Kluver-Barrera staining), slightly injured model
# Description: Wister rats (SPF, male) were used as animals, and each body was shaved from the neck to the hip using an electric hair clipper under pentobarbital (50 mg/kg weight) anesthesia and cleaned with 70% ethanol and Isodine (manufactured by Meiji Seika Kaisha, Ltd.). The dorsal skin was incised to expose thoracic vertebra from T5 to T10, and hemilaminectomy of the sixth thoracic vertebra (T6 thoracic vertebra) was performed to make a small incision in the dura mater, followed by regional anesthesia with xylocaine (manufactured by Astra Zeneca). Subsequently, two models were prepared as follows: a spatula (the tip of which had been processed into 0.3 mm) was inserted to the T6 position from the dorsal until the tip reached the abdominal centrum and maintained for 10 minutes to injure the spinal cord (slightly injured model), while a tweezer (the tip of which had been processed into 0.3 mm) was inserted until the tip reached the abdominal centrum, and the portion was pinched from both sides for 10 seconds to injure the spinal cord (seriously injured model). A respirator was used only when spinal cord evoked potentials were measured. The respirator was inserted into the windpipe under 1.0 to 2.0% halothane anesthesia and stabilized with a muscle relaxant. After the injury, HA4 (6 μl) was immediately administered using a microsyringe (25 μl; manufactured by Ito Seisakusyo Co., Ltd.) into the dura mater. Thereafter, the tip (OD: 0.3 mm) of a tube that was filled with HA4 and connected with an osmotic pump (model 1002, manufactured by Alzet) was placed under the dura mater of the rostral in the injured portion, and HA4 was continuously administered for 7 days. Meanwhile, 5 minutes, 2 hours, 4 hours, and 6 hours after the injury, 30 mg/kg of methylprednisolone sodium succinate (MPSS, manufactured by Pharmacia) was administered into the tail vein as a positive control. For separating the injured portion from the surrounding tissues, a gelatin sponge (Gelform; manufactured by Pharmacia) was placed, and the rat was brought back to a feeding gauge after the wound had been sewn. […]
# [3] = tested on: spinal cord injury, severely injured model (II); experiment: Balance beam and metal gauze crossing tests, severely injured model (II); conditions: 7 days after spinal cord injury, mean of four crossings, P<0.0001 vs physiological saline-administered group
# Description: (§3) Wister rats (SPF, male) were used as animals, and each body was shaved from the neck to the hip using an electric hair clipper under pentobarbital (50 mg/kg weight) anesthesia and cleaned with 70% ethanol and Isodine (manufactured by Meiji Seika Kaisha, Ltd.). The dorsal skin was incised to expose thoracic vertebra from T5 to T10, and hemilaminectomy of the sixth thoracic vertebra (T6 thoracic vertebra) was performed to make a small incision in the dura mater, followed by regional anesthesia with xylocaine (manufactured by Astra Zeneca). Subsequently, two models were prepared as follows: a spatula (the tip of which had been processed into 0.3 mm) was inserted to the T6 position from the dorsal until the tip reached the abdominal centrum and maintained for 10 minutes to injure the spinal cord (slightly injured model), while a tweezer (the tip of which had been processed into 0.3 mm) was inserted until the tip reached the abdominal centrum, and the portion was pinched from both sides for 10 seconds to injure the spinal cord (seriously injured model). A respirator was used only when spinal cord evoked potentials were measured. […] Then, the numbers of slips in the hind limb were recorded, and evaluated by the mean value (FIG. 12). As for the sham surgery group prepared by making a small incision in the dura mater (Sham), the number of slips in the hind limb was also determined.
# [4] = tested on: spinal cord injury, seriously injured model (II); experiment: Spinal cord evoked potential (SCEP), seriously injured model (II); conditions: HA4 6.0 μg/animal/day, vs physiological saline-administered group, p<0.05
# Description: as §1, §2
# [5] = tested on: spinal cord injury, severely injured model (II); experiment: Hind limb motor function test (BBB scale), severely injured model (II); conditions: HA4 6 μg/day, over 1 to 7 days after the spinal cord injury, P<0.0001 vs physiological saline-administered group
# Description: as §3, with “According to” for “Then,”, “method described by Basso et al., two test examiners individually evaluated blindly using” for “numbers of slips in”, “Basso-Beeattie-Bresnahan (BBB) scale,” for “hind limb were recorded,”, “and” for “and evaluated by”, “values were defined as the final score” for “value”, “13).” for “12). As for the sham surgery group prepared by making a small incision in the dura mater (Sham), the number of slips in the hind limb was also determined.”
# [6] = tested on: spinal cord injury model; experiment: Evaluation on performance status (walking) after spinal cord injury; conditions: 7 days after the administration; PBS-administered group showed difficulty in walking
# Description: Wister rats (SPF, male) were used as animals, and each body was shaved from the neck to the hip using an electric hair clipper under pentobarbital (50 mg/kg weight) anesthesia and cleaned with 70% ethanol and Isodine (manufactured by Meiji Seika Kaisha, Ltd.). The dorsal skin was incised to expose thoracic vertebra from T5 to T10, and hemilaminectomy of the sixth thoracic vertebra (T6 thoracic vertebra) was performed to make a small incision in the dura mater, followed by regional anesthesia with xylocaine (manufactured by Astra Zeneca). Subsequently, two models were prepared as follows: a spatula (the tip of which had been processed into 0.3 mm) was inserted to the T6 position from the dorsal until the tip reached the abdominal centrum and maintained for 10 minutes to injure the spinal cord (slightly injured model), while a tweezer (the tip of which had been processed into 0.3 mm) was inserted until the tip reached the abdominal centrum, and the portion was pinched from both sides for 10 seconds to injure the spinal cord (seriously injured model). A respirator was used only when spinal cord evoked potentials were measured. The respirator was inserted into the windpipe under 1.0 to 2.0% halothane anesthesia and stabilized with a muscle relaxant. […]
# [7] = tested on: spinal cord injury, seriously injured model (I); experiment: Spinal cord evoked potential (SCEP), seriously injured model (I); conditions: for SCEP amplitude (first potential): 7 days after injury, vs PBS-administered group
# Description: Wister rats (SPF, male) were used as animals, and each body was shaved from the neck to the hip using an electric hair clipper under pentobarbital (50 mg/kg weight) anesthesia and cleaned with 70% ethanol and Isodine (manufactured by Meiji Seika Kaisha, Ltd.). The dorsal skin was incised to expose thoracic vertebra from T5 to T10, and hemilaminectomy of the sixth thoracic vertebra (T6 thoracic vertebra) was performed to make a small incision in the dura mater, followed by regional anesthesia with xylocaine (manufactured by Astra Zeneca). Subsequently, two models were prepared as follows: a spatula (the tip of which had been processed into 0.3 mm) was inserted to the T6 position from the dorsal until the tip reached the abdominal centrum and maintained for 10 minutes to injure the spinal cord (slightly injured model), while a tweezer (the tip of which had been processed into 0.3 mm) was inserted until the tip reached the abdominal centrum, and the portion was pinched from both sides for 10 seconds to injure the spinal cord (seriously injured model). A respirator was used only when spinal cord evoked potentials were measured. The respirator was inserted into the windpipe under 1.0 to 2.0% halothane anesthesia and stabilized with a muscle relaxant.
# After the injury, HA4 (6 μl) was immediately administered using a microsyringe (25 μl; manufactured by Ito Seisakusyo Co., Ltd.) into the dura mater. Thereafter, the tip (OD: 0.3 mm) of a tube that was filled with HA4 and connected with an osmotic pump (model 1002, manufactured by Alzet) was placed under the dura mater of the rostral in the injured portion, and HA4 was continuously administered for 7 days. […]
# as §2
smiles,measurement,setting,value
"CC(=O)N[C@H]1[C@H](O[C@H]2[C@H](O)[C@@H](O)[C@H](O[C@H]3[C@H](O)[C@@H](CO)OC(O)[C@@H]3NC(C)=O)O[C@@H]2C(=O)O)O[C@H](CO)[C@@H](O)[C@@H]1O[C@@H]1O[C@H](C(=O)O)[C@@H](O)[C@H](O)[C@H]1O (stereo partly shown) [HA4, GlcA-GlcNAc-GlcA-GlcNAc]",SCEP amplitude level relative to normal (no injury-no treatment group),[1],the same as the normal level
same,SCEP amplitude (first potential),"[1]; intradural, continuous 7 days, vs PBS-administered group, p<0.05",decrease of SCEP amplitude was significantly attenuated or the SCEP amplitude was recovered
same,number of axons crossing from white matter to gray matter,"[2]; 5 mm range in the rostral/caudal direction in the injured site, vs physiological saline-administered group",significantly larger
same,"tissue injury, edema and myelin loss in white matter","[2]; Kluver-Barrera staining, PBS group showed edema and myelin loss 1 cm or more from the injured site","the tissue injury was present only near the injured site, and edema and myelin loss were rarely observed in white matter"
same,injured area (damaged area),"[2]; coronal plane including the central canal, vs PBS-administered group",significantly smaller
same,"number of slips in the hind limb, balance beam crossing",[3],significantly low
same,"number of slips in the hind limb, metal gauze crossing",[3],significantly low
same,SCEP amplitude,[4],significantly recovered
same,motor function in the hind limb (BBB scale),[5],significantly recovered
same,performance status (walking),[6],walking approximately similar to that of the normal rat was observed
same,SCEP amplitude (first potential),"[7]; HA4 0.6 μg/animal/day, p<0.05",decrease of the SCEP amplitude was significantly attenuated or the SCEP amplitude was recovered
same,SCEP effect compared with MPSS,"[7]; HA4 6 μg/animal/day vs MPSS 30 mg/kg x 4 times, tail vein",stronger effect than that of MPSS
same,SCEP amplitude (first potential),"[7]; HA4 6 μg/animal/day, p<0.001, same level as the normal level",decrease of the SCEP amplitude was significantly attenuated or the SCEP amplitude was recovered
